The values below are quoted from earlier work in patent US11433083B2, “High-strength testosterone undecanoate compositions” (priority 2010, dated 2022).

For the molecule `CCCCCCCCCCC(=O)O[C@H]1CC[C@H]2[C@@H]3CCC4=CC(=O)CC[C@]4(C)[C@H]3CC[C@]12C` [Testosterone undecanoate, testosterone undecanoate], the water solubility is < 0.3 ng/mL.
